Test results as given in patent publication US8518934B2, “Oxycarbamoyl compounds and the use thereof” (Shonogi & Co., Ltd., priority 2008, dated 2013).

Biological target: T1, N-type calcium channel (NTCC) (Homo sapiens, UniProt Q00975)
T1 construct: endogenous in cells; host or cells: differentiated IMR32 cells (ATCC)
Experiment: FLIPR calcium mobilization assay for N-type calcium channel
Assay type: cell-based
Settings: calcium mobilization in vitro assay; differentiated IMR32 cells, 90 mM KCl, 5 μM nitrendipine, Fluo-4
Experimental: Cell maintenance and differentiation. Unless noted otherwise, cell culture reagents were purchased from Mediatech of Herndon, Md. IMR32 cells (American Type Culture Collection, ATCC, Manassas, Va.) were routinely cultured in growth medium consisting of minimum essential medium containing 10% fetal bovine serum (FBS, Hyclone, Logan, Utah), 100 U/mL penicillin, 100 μg/mL streptomycin, 2 mM L-glutamine, 1 mM sodium pyruvate, and 1×MEM non-essential amino acids. 80-90% confluent flasks of cells were differentiated using the following differentiation medium: Growth medium plus 1 mM dibutyryl cyclic AMP (Sigma, St. Louis, Mo.), and 2.5 μM bromodeoxyuridine (Sigma). Cells were differentiated for 8 days by replacing differentiation medium every 2-3 days. A7r5 (ATCC) cells were maintained and routinely cultured in A7r5 growth medium consisting of Dulbecco's Modified Eagles Medium containing 10% FBS, 100 U/mL penicillin, 100 μg/mL streptomycin, 4 mM L-glutamine, and 0.15% sodium bicarbonate. 80-90% confluent flasks of cells were differentiated using the following differentiation medium: A7r5 Growth Medium plus 1 mM dibutyryl cyclic AMP (Sigma). Cells were differentiated for 8 days by replacing differentiation medium every 2-3 days.
Recombinant human embryonal kidney cells (HEK293, ATCC) stably transfected with either N-type calcium channel (NTCC) subunits (α1b, α2δ, and β3) or L-type calcium channel (LTCC) subunits (α1c, α2δ, and β1) were routinely cultured in growth medium consisting of Dulbecco's Modified Eagles Medium containing 10% FBS, 100 U/mL penicillin, 100 μg/mL streptomycin, 4 mM L-glutamine, 500 μg/mL geneticin (G418), 20 μg/mL Blasticidin S (InVivogen, San Diego, Calif.) and 500 μg/mL zeocin (InVivogen). FLIPR Calcium Mobilization Assay for N-type Calcium Channel. One day prior to performing this assay, differentiated IMR32 cells were treated with lx CellStripper, and seeded on poly-D-lysine-coated 96-well clear-bottom black plates (Becton Dickinson, Franklin Lakes, N.J.) at 200,000 cells/well. On the day of the assay, the cell plates were washed with IMR32 buffer (127 mM NaCl, 1 mM KCl, 2 mM MgCl2, 700 μM NaH2PO4, 5 mM CaCl2, 5 mM NaHCO3, 8 mM HEPES, 10 mM glucose, pH 7.4), then pre-stimulated with KCl and loaded as follows: 0.05 mL of IMR32 buffer, 0.05 mL of each compound tested diluted in IMR32 buffer containing 20 μM nitrendipine (Sigma), and 0.1 mL KCl dissolved in IMR32 buffer, plus Fluo-4 were added (3 μM final concentration, Molecular Probes, Eugene, Oreg.). Final test compound concentrations ranged from about 846 pM to about 17 μM, final nitrendipine concentration was 5 μM, and final KCl concentration was 90 mM. After 1 hour, the cells were washed twice with 0.05 mL of each compound tested in nitrendipine-containing IMR32 buffer (no KCl or Fluo-4), and then replaced with 0.1 mL of each compound tested in nitrendipine-containing IMR32 buffer. Plates were then transferred to a Fluorimetric Imaging Plate Reader (FLIPR^96, Molecular Devices, Inc., Sunnyvale, Calif.) for assay. The FLIPR measured basal Fluo-4 fluorescence for 315 seconds (i.e., 5 minutes and 15 seconds), then added 0.1 mL KCl agonist dissolved in IMR32 buffer and measured fluorescence for another 45 seconds. Final test compound concentrations on the cells after FLIPR read ranged from about 846 pM to about 17 μM, final nitrendipine concentration was 5 μM, and final KCl concentration was 90 mM. Data were collected over the entire time course and analyzed using Excel, Graph Pad Prism (version 3.02, Graph Pad, San Diego, Calif.), or an in-house non-linear regression analysis software.

T1 sequence (Q00975 whole entry): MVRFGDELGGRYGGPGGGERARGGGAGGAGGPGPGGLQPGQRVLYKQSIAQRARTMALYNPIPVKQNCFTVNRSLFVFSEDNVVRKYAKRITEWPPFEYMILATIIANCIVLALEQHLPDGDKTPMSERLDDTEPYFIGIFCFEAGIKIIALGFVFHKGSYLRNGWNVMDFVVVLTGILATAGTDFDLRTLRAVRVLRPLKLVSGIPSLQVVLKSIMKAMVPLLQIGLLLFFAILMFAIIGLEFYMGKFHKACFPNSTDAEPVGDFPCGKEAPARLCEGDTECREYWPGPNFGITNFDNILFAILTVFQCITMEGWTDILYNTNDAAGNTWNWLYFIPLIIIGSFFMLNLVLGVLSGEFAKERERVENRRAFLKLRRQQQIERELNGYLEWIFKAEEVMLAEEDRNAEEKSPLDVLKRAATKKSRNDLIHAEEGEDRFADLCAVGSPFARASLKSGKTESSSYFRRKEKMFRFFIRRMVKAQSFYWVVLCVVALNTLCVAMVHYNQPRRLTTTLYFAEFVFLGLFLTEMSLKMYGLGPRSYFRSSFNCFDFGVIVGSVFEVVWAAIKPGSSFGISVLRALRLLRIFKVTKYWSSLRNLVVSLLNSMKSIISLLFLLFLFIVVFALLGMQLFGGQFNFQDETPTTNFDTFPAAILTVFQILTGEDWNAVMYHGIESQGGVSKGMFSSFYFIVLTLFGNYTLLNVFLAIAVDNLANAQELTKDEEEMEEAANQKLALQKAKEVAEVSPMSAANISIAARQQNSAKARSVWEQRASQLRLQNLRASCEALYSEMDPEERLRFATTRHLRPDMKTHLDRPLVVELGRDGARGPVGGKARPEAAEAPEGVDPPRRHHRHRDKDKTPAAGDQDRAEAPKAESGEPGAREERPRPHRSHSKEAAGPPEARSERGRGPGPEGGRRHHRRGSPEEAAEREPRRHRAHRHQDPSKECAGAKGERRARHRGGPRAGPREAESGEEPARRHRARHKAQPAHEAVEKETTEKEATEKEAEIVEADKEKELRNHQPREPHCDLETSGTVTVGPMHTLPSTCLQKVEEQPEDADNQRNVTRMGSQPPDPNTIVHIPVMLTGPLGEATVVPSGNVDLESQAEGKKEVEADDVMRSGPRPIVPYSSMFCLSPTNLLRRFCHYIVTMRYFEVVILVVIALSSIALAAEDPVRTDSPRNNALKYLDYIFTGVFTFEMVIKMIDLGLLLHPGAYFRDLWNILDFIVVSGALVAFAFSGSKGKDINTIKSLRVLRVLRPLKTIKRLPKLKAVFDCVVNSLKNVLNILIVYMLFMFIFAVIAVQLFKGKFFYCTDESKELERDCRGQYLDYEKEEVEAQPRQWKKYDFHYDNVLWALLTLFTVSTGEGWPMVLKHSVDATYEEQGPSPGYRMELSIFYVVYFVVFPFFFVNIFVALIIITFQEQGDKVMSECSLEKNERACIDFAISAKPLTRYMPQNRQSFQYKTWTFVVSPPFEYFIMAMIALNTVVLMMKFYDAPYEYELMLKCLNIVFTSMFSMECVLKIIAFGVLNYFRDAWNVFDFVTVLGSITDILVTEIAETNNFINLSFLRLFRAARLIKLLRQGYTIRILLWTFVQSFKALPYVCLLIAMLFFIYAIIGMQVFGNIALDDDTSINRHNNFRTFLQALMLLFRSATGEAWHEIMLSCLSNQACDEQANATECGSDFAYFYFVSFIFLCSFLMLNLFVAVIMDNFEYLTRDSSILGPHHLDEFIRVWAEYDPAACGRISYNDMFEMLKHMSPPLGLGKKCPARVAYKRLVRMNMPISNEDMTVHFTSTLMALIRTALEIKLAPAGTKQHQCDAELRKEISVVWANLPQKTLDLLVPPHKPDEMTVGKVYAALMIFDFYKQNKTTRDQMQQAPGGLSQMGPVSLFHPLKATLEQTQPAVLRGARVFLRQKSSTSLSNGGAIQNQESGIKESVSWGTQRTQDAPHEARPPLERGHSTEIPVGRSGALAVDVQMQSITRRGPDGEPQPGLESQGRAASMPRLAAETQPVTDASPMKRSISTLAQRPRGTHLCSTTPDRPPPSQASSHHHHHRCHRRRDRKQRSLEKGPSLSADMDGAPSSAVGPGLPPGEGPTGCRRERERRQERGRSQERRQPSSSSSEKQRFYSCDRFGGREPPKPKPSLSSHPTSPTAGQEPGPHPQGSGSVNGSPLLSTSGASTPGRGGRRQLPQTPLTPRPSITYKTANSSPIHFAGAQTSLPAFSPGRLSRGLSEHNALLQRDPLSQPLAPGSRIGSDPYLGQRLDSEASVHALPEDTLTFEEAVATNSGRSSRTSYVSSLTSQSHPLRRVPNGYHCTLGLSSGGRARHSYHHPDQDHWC
T1 sequence (P54289 25-956 partner limits assumed): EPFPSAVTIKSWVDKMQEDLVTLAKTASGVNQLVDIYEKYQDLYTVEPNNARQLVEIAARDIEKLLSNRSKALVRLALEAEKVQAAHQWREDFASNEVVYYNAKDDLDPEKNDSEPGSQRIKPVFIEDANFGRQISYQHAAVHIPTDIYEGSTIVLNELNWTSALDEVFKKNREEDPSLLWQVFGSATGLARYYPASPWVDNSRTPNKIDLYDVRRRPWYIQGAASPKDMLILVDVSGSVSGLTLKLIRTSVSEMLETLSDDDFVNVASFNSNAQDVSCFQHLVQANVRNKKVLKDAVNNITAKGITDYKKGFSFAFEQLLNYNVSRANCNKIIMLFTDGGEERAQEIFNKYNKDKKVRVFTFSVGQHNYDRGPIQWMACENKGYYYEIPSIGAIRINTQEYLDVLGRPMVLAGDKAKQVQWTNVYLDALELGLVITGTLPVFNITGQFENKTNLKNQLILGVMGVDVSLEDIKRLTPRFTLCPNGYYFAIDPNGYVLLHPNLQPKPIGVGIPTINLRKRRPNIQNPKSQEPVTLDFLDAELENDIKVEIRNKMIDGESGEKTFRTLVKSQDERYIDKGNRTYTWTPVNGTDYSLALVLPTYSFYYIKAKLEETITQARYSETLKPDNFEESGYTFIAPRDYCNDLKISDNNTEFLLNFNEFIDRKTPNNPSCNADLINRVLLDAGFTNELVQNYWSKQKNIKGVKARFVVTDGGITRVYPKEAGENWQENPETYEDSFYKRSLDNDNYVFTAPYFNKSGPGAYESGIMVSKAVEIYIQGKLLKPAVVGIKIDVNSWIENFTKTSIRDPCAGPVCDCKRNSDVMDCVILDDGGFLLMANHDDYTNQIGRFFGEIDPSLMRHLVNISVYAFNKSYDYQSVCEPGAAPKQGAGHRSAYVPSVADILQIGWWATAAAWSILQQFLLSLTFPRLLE
T1 sequence (P54289 957-1103 partner limits assumed): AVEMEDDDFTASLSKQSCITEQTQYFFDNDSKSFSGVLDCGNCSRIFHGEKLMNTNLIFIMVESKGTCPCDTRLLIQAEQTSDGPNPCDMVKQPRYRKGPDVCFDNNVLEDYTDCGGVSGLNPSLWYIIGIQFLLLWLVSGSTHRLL
T1 sequence (P54284 whole entry partner): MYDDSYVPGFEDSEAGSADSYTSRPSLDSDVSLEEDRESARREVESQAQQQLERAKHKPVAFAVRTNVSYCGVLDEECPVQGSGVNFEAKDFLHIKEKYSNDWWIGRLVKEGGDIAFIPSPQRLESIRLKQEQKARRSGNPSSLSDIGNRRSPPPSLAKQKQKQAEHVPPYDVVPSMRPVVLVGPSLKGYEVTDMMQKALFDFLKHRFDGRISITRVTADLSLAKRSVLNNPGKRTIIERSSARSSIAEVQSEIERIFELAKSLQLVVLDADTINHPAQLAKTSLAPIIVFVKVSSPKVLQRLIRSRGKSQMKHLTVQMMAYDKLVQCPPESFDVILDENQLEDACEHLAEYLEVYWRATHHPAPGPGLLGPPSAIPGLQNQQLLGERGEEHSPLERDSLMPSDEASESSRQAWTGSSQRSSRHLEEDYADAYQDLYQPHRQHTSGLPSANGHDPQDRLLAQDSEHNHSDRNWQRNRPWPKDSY

| Compound | IC50 [nM] |
| --- | --- |
| O=C(NO[C@H]1CCN(S(=O)(=O)c2cccc(C(F)(F)F)c2)C1)Nc1cc(C(F)(F)F)cc(C(F)(F)F)c1 [Example 86, (S)-1-(3,5-Bis(trifluoromethyl)phenyl)-3-(1-(3-(trifluoromethyl)phenylsulfonyl)pyrrolidin-3-yloxy)urea] | 705 |
| O=C(NO[C@H]1CCN(S(=O)(=O)c2cccc(C(F)(F)F)c2)C1)c1ccc(F)cc1 [Example 16, (S)-4-Fluoro-N-(1-(3-(trifluoromethyl)phenylsulfonyl)pyrrolidin-3-yloxy)benzamide] | 1220 |
| O=C(NOC1CCN(C(c2ccc(F)cc2)c2ccc(F)cc2)CC1)Nc1ccc(F)cc1 [Example 106, 1-(1-(Bis(4-fluorophenyl)methyl)piperidin-4-yloxy)-3-(4-fluorophenyl)urea] | 2580 |
| O=C(NCCC(F)(F)F)NOC1CCN(S(=O)(=O)c2ccc(OC(F)(F)F)cc2)CC1 [Example 67, 1-(1-(4-(Trifluoromethoxy)phenylsulfonyl)piperidin-4-yloxy)-3-(3,3,3-trifluoropropyl)urea] | 1490 |

Molecules with a lower IC50, results first:

| IC50 [nM] | Compound |
| --- | --- |
| 575 | N#Cc1cccc(C(=O)NOC2CCN(S(=O)(=O)c3cccc(C(F)(F)F)c3)CC2)c1 [Example 7, 3-Cyano-N-(1-(3-(trifluoromethyl)phenylsulfonyl)piperidin-4-yloxy)benzamide] |
| 560 | CN(C(=O)NOC1CCN(S(=O)(=O)c2cccc(C(F)(F)F)c2)CC1)c1ccc(F)cc1 [Example 32, 1-(4-Fluorophenyl)-1-methyl-3-(1-(3-(trifluoromethyl)phenylsulfonyl)piperidin-4-yloxy)urea] |
| 290 | O=C(NOC1CCN(S(=O)(=O)c2ccc(OC(F)(F)F)cc2)CC1)NC1CCC1 [Example 55, 1-Cyclobutyl-3-(1-(4-(trifluoromethoxy)phenylsulfonyl)piperidin-4-yloxy)urea] |
| 218 | O=C(NOC1CCN(S(=O)(=O)c2cccc(C(F)(F)F)c2)CC1)C(c1ccccc1)c1ccccc1 [Example 9, 2,2-Diphenyl-N-(1-(3-(trifluoromethyl)phenylsulfonyl)piperidin-4-yloxy)acetamide] |
| 154 | O=C(NCCOc1ccc(F)cc1)NOC1CCN(S(=O)(=O)c2cccc(C(F)(F)F)c2)CC1 [Example 31, 1-(2-(4-Fluorophenoxy)ethyl)-3-(1-(3-(trifluoromethyl)phenylsulfonyl)piperidin-4-yloxy)urea] |
| 102 | O=C(CCc1ccc(F)cc1)NOC1CCN(S(=O)(=O)c2cccc(C(F)(F)F)c2)CC1 [Example 5, 3-(4-Fluorophenyl)-N-(1-(3-(trifluoromethyl)phenylsulfonyl)piperidin-4-yloxy)propanamide] |
